Source: ChEMBL document CHEMBL6120973 (J Med Chem, 2024)

Assays:
[1] = system: Human immunodeficiency virus 1; experiment: Antiviral activity against HIV-1 harboring RT Y181C mutant infected in human MT4 cells assessed as protection against virus-induced cytopathic effect incubated for 5 days by MTT assay; assay type: functional, organism-based; conditions: Human immunodeficiency virus 1, MT4, 120 h
[2] = system: Human immunodeficiency virus 1; experiment: Antiviral activity against HIV-1 harboring RT L100I mutant infected in human MT4 cells assessed as protection against virus-induced cytopathic effect incubated for 5 days by MTT assay; assay type: functional, organism-based; conditions: Human immunodeficiency virus 1, MT4, 120 h
[3] = Selectivity index, ratio of CC50 for human MT4 cells to EC50 for wild type HIV-1 IIIB infected in human MT4 cellS; conditions: MT4 cells
[4] = system: Human immunodeficiency virus 1; experiment: Antiviral activity against HIV-1 harboring RT K103N mutant infected in human MT4 cells assessed as protection against virus-induced cytopathic effect incubated for 5 days by MTT assay; assay type: functional, organism-based; conditions: Human immunodeficiency virus 1, MT4, 120 h
[5] = system: Human immunodeficiency virus 1; experiment: Antiviral activity against HIV-1 harboring RT F227L/V106A double mutant infected in human MT4 cells assessed as protection against virus-induced cytopathic effect incubated for 5 days by MTT assay; assay type: functional, organism-based; conditions: Human immunodeficiency virus 1, MT4, 120 h
[6] = system: Human immunodeficiency virus 1; experiment: Antiviral activity against HIV-1 harboring RT Y188L mutant infected in human MT4 cells assessed as protection against virus-induced cytopathic effect incubated for 5 days by MTT assay; assay type: functional, organism-based; conditions: Human immunodeficiency virus 1, MT4, 120 h
[7] = system: Human immunodeficiency virus 1; experiment: Antiviral activity against HIV-1 harboring RT K103N/Y181C double mutant infected in human MT4 cells assessed as protection against virus-induced cytopathic effect incubated for 5 days by MTT assay; assay type: functional, organism-based; conditions: Human immunodeficiency virus 1, MT4, 120 h
[8] = Cytotoxicity against human MT4 cells assessed as reduction in cell viability measured after 5 days by MTT assay; conditions: MT4 cells
[9] = target: Human immunodeficiency virus type 1 reverse transcriptase (Human immunodeficiency virus 1, UniProt Q72547); experiment: Inhibition of recombinant wild type HIV-1 Reverse transcriptase incubated for 40 mins by Pico-green reagent based fluorescence analysis
[10] = system: Human immunodeficiency virus 1; experiment: Antiviral activity against wildtype HIV-1 IIIB infected in human MT4 cells assessed as protection against virus-induced cytopathic effect incubated for 5 days by MTT assay; assay type: functional, organism-based; conditions: Human immunodeficiency virus 1, IIIB, MT4, 120 h
[11] = system: Human immunodeficiency virus 1; experiment: Antiviral activity against HIV-1 harboring RT E138K mutant infected in human MT4 cells assessed as protection against virus-induced cytopathic effect incubated for 5 days by MTT assay; assay type: functional, organism-based; conditions: Human immunodeficiency virus 1, MT4, 120 h
[12] = Solubility of compound in Watson's distilled pure water measured after 24 hrs by HPLC analysis; assay type: physicochemical
[13] = Tmax in male Sprague-Dawley rat at 10 mg/kg, po measured after 24 hrs by LC-MS analysis; assay type: ADME, organism-based; conditions: in vivo
[14] = MRT (0 to infinity) in male Sprague-Dawley rat at 1 mg/kg, iv measured after 24 hrs by LC-MS analysis; assay type: ADME, organism-based; conditions: in vivo
[15] = MRT (0 to t) in male Sprague-Dawley rat at 10 mg/kg, po measured after 24 hrs by LC-MS analysis; assay type: ADME, organism-based; conditions: in vivo
[16] = Half-life in male Sprague-Dawley rat at 10 mg/kg, po measured after 24 hrs by LC-MS analysis; assay type: ADME, organism-based; conditions: in vivo
[17] = AUC (0 to infinity) in male Sprague-Dawley rat at 10 mg/kg, po measured after 24 hrs by LC-MS analysis; assay type: ADME, organism-based; conditions: in vivo
[18] = Cmax in male Sprague-Dawley rat at 1 mg/kg, iv measured after 24 hrs by LC-MS analysis; assay type: ADME, organism-based; conditions: in vivo
[19] = AUC (0 to t) in male Sprague-Dawley rat at 1 mg/kg, iv measured after 24 hrs by LC-MS analysis; assay type: ADME, organism-based; conditions: in vivo
[20] = Cmax in male Sprague-Dawley rat at 10 mg/kg, po measured after 24 hrs by LC-MS analysis; assay type: ADME, organism-based; conditions: in vivo
[21] = Oral bioavailability in male Sprague-Dawley rat at 10 mg/kg measured after 24 hrs by LC-MS analysis; assay type: ADME, organism-based; conditions: in vivo
[22] = Clearance in male Sprague-Dawley rat at 1 mg/kg, iv measured after 24 hrs by LC-MS analysis; assay type: ADME, organism-based; conditions: in vivo
[23] = AUC (0 to infinity) in male Sprague-Dawley rat at 1 mg/kg, iv measured after 24 hrs by LC-MS analysis; assay type: ADME, organism-based; conditions: in vivo
[24] = MRT (0 to infinity) in male Sprague-Dawley rat at 10 mg/kg, po measured after 24 hrs by LC-MS analysis; assay type: ADME, organism-based; conditions: in vivo
[25] = Solubility of compound in phosphate buffer at pH 7.4 measured after 24 hrs by HPLC analysis; assay type: physicochemical
[26] = AUC (0 to t) in male Sprague-Dawley rat at 10 mg/kg, po measured after 24 hrs by LC-MS analysis; assay type: ADME, organism-based; conditions: in vivo
[27] = MRT (0 to t) in male Sprague-Dawley rat at 1 mg/kg, iv measured after 24 hrs by LC-MS analysis; assay type: ADME, organism-based; conditions: in vivo
[28] = Half-life in male Sprague-Dawley rat at 1 mg/kg, iv measured after 24 hrs by LC-MS analysis; assay type: ADME, organism-based; conditions: in vivo
[29] = Tmax in male Sprague-Dawley rat at 1 mg/kg, iv measured after 24 hrs by LC-MS analysis; assay type: ADME, organism-based; conditions: in vivo
[30] = Solubility of compound in phosphate buffer at pH 7.0 measured after 24 hrs by HPLC analysis; assay type: physicochemical
[31] = Solubility of compound in phosphate buffer at pH 2.0 measured after 24 hrs by HPLC analysis; assay type: physicochemical

Structure (SMILES) | EC50 [1] | EC50 [2] | selectivity ratio [3] | EC50 [4] | EC50 [5] | EC50 [6] | EC50 [7] | CC50 at 120 h [8] | IC50 [9] | EC50 [10] | EC50 [11] | also measured
Cc1cc(-c2ccncc2)cc(C)c1Nc1nc(Nc2ccc(C#N)cc2)ncc1-c1ccco1 | 24 nM | 7 nM | 2060 | 3 nM | 142 nM | 15 nM | 102 nM | 7970 nM | 84 nM | 4 nM | 7 nM | –
Cc1cc(-c2ccncc2)cc(C)c1Nc1nc(Nc2ccc(C#N)cc2)ncc1-c1cncc(N)c1 | 51 nM | 29 nM | 1050 | 7 nM | 323 nM | 63 nM | 378 nM | 6380 nM | 73 nM | 6 nM | 13 nM | –
Cc1cc(-c2ccncc2)cc(C)c1Nc1nc(Nc2ccc(C#N)cc2)ncc1-c1ccncc1 | 139 nM | 92 nM | > 19100 | 23 nM | 1980 nM | 182 nM | 1170 nM | > 266000 nM | 59 nM | 14 nM | 41 nM | –
Cc1cc(-c2ccncc2)cc(C)c1Nc1nc(Nc2ccc(C#N)cc2)ncc1-c1cncc(Cl)c1 | 78 nM | 117 nM | > 32800 | 37 nM | 1530 nM | 121 nM | 982 nM | > 248000 nM | 197 nM | 8 nM | 45 nM | –
Cc1cc(-c2ccncc2)cc(C)c1Nc1nc(Nc2ccc(C#N)cc2)ncc1-c1cn[nH]c1.Cl | – | – | – | – | – | – | – | – | – | – | – | solubility at 24 h [12]: 366 µg/mL; Tmax [13]: 1 h; MRT inf [14]: 1.14 h; MRT last at 24 h [15]: 3.04 h; half-life [16]: 2.92 h; AUC(0-inf) [17]: 3470 ng·h/mL; Cmax [18]: 572 ng/mL; AUC(0-t) at 24 h [19]: 600 ng·h/mL; Cmax [20]: 862 ng/mL; bioavailability [21]: 57.4%; clearance [22]: 30.3 mL/min/kg; AUC(0-inf) [23]: 605 ng·h/mL; MRT inf [24]: 3.14 h; solubility at 24 h [25]: < 1 µg/mL; AUC(0-t) at 24 h [26]: 3460 ng·h/mL; MRT last at 24 h [27]: 1.1 h; half-life [28]: 0.84 h; Tmax [29]: 4.8 min; solubility at 24 h [30]: < 1 µg/mL; solubility at 24 h [31]: 782 µg/mL
Cc1cc(-c2cnc(Nc3ccc(C#N)cc3)nc2Nc2c(C)cc(-c3ccncc3)cc2C)ccn1 | 75 nM | 71 nM | 1630 | 21 nM | 1330 nM | 93 nM | 942 nM | 14900 nM | 127 nM | 9 nM | 29 nM | –
COc1cc(-c2cnc(Nc3ccc(C#N)cc3)nc2Nc2c(C)cc(-c3ccncc3)cc2C)ccn1 | 61 nM | 51 nM | 6750 | 21 nM | 611 nM | 91 nM | 594 nM | 59900 nM | 115 nM | 9 nM | 16 nM | –
Cc1cc(-c2ccncc2)cc(C)c1Nc1nc(Nc2ccc(C#N)cc2)ncc1-c1ccc(F)nc1 | 48 nM | 51 nM | 5530 | 9 nM | 1160 nM | 76 nM | 480 nM | 48400 nM | 86 nM | 9 nM | 14 nM | –
Cc1cc(-c2ccncc2)cc(C)c1Nc1nc(Nc2ccc(C#N)cc2)ncc1-c1ccsc1 | 41 nM | 34 nM | > 45200 | 8 nM | 453 nM | 47 nM | 259 nM | > 264000 nM | 72 nM | 6 nM | 43 nM | –
